Data published in patent US7547519B2, “Methods of diagnosing multidrug resistant tuberculosis” (The United States of America as represented by the …, priority 2000, dated 2009).
In brackets after ≈: the same amount, converted by molar mass.

Experiments:
[1] = system: MTb H37Rv
[2] = system: MTb patient isolates; format: cell-based, Mycobacterium tuberculosis
[3] = system: MTb H37Rv; assay: microbe, parasite or virus in culture; conditions: Mycobacterium tuberculosis

Structure (SMILES) | growth of transformants [1] | isolates cross-resistant [2] | susceptibility of isolates without mutations in EtaA, EtaR or promoter regions [2] | MIC [3]
CCc1cc(C(N)=S)ccn1 [ETA, ethionamide] | grew as a lawn at 2.5 and 5 μg/ml ETA | Eleven of fourteen | fully sensitive | 2.5 to 5 µg/mL (≈ 15 to 30.1 µM)
CC(C)CCOc1ccc(NC(=S)Nc2ccc(OCCC(C)C)cc2)cc1 [thiocarlide] |  | thirteen out of fourteen |  | 
